{"source": "the supplement of paper PMC10331698", "assay_in_all_cases": "level (log10 ratio to DMSO vehicle control); higher = higher biomarker level / cell amount than vehicle control", "key": {"[1]": {"compound": "C=C(C)C(=O)OCC(F)(F)C(F)(F)C(F)(F)F [2,2,3,3,4,4,4-Heptafluorobutyl methacrylate]", "settings": "in DMSO", "experimental": "(§1)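 BioMAP Diversity Plus panel of 12 human primary cell co-culture systems (3C, 4H, LPS, SAg, BT, BF4T, BE3C, CASM3C, HDF3CGF, KF3CT, MyoF, Mphg). Compounds were added 1 h before stimulation and left for 24 h (MyoF 48 h; BT 72 h for soluble read-outs or 6 d for IgG). Biomarkers were read by ELISA, cytotoxicity by SRB, PBMC viability and proliferation by Alamar Blue. Each well value was divided by the mean of 8 DMSO control wells on the same plate and log10 transformed; duplicate blinded samples were tested at 4 concentrations.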"}, "[2]": {"compound": "OCC(F)(F)C(F)(F)C(F)(F)C(F)(F)C(F)(F)C(F)(F)F [6:1 Fluorotelomer alcohol]", "settings": "in DMSO", "experimental": "as §1"}, "[3]": {"compound": "FC(F)(F)C(F)(F)C(F)(F)C(F)(F)CCI [1H,1H,2H,2H-Perfluorohexyl iodide]", "settings": "in DMSO", "experimental": "as §1"}, "[4]": {"compound": "OCCCC(F)(F)C(F)(F)C(F)(F)C(F)(F)C(F)(F)C(F)(F)C(F)(F)C(F)(F)F [3-(Perfluorooctyl)propanol]", "settings": "6700 nM; in DMSO", "experimental": "as §1"}, "[5]": {"compound": "C=CC(=O)OCC(F)(F)C(F)(F)C(F)(F)C(F)(F)C(F)(F)C(F)(F)C(F)(F)C(F)F [1H,1H,9H-Perfluorononyl acrylate]", "settings": "in DMSO", "experimental": "as §1"}, "[6]": {"compound": "O=P(O)(O)CCC(F)(F)C(F)(F)C(F)(F)C(F)(F)C(F)(F)C(F)(F)F [2-(Perfluorohexyl)ethylphosphonic acid]", "settings": "in DMSO", "experimental": "as §1"}, "[7]": {"compound": "FC(F)(F)COC(OCC(F)(F)F)OCC(F)(F)F [tris(Trifluoroethoxy)methane]", "settings": "in DMSO", "experimental": "as §1"}}, "note": "± gives the standard deviation of the averaged measurements.", "data": [{"test system": "CASM3C:M-CSF", "values": [{"measurement": "level (log10)", "setting": "[1]; 6700 nM", "result": "0.003 ± 0.016"}, {"measurement": "level (log10)", "setting": "[1]; 20000 nM", "result": "0.0245 ± 0.019"}, {"measurement": "level (log10)", "setting": "[1]; 60000 nM", "result": "0.024 ± 0.0099"}, {"measurement": "level (log10)", "setting": "[2]; 6700 nM", "result": "-0.013 ± 0.0042"}, {"measurement": "level (log10)", "setting": "[2]; 20000 nM", "result": "-0.013 ± 0.037"}, {"measurement": "level (log10)", "setting": "[2]; 60000 nM", "result": "-0.0855 ± 0.023"}, {"measurement": "level (log10)", "setting": "[3]; 6700 nM", "result": "-0.013 ± 0.0014"}, {"measurement": "level (log10)", "setting": "[3]; 20000 nM", "result": "-0.02 ± 0.0014"}, {"measurement": "level (log10)", "setting": "[3]; 60000 nM", "result": "0.0035 ± 0.049"}, {"measurement": "level (log10)", "setting": "[4]", "result": "-0.0325 ± 0.025"}, {"measurement": "level (log10)", "setting": "[5]; 6700 nM", "result": "-0.0225 ± 0.06"}, {"measurement": "level (log10)", "setting": "[5]; 20000 nM", "result": "0.001 ± 0.031"}, {"measurement": "level (log10)", "setting": "[5]; 60000 nM", "result": "-0.041 ± 0.071"}, {"measurement": "level (log10)", "setting": "[6]; 6700 nM", "result": "0.0025 ± 0.005"}, {"measurement": "level (log10)", "setting": "[6]; 20000 nM", "result": "0.0115 ± 0.011"}, {"measurement": "level (log10)", "setting": "[6]; 60000 nM", "result": "-0.0055 ± 0.037"}, {"measurement": "level (log10)", "setting": "[7]; 6700 nM", "result": "-0.0565 ± 0.015"}, {"measurement": "level (log10)", "setting": "[7]; 20000 nM", "result": "-0.03 ± 0.021"}, {"measurement": "level (log10)", "setting": "[7]; 60000 nM", "result": "0.013 ± 0.037"}]}, {"test system": "MyoF:Collagen I", "values": [{"measurement": "level (log10)", "setting": "[1]; 6700 nM", "result": "0.0055 ± 0.013"}, {"measurement": "level (log10)", "setting": "[1]; 20000 nM", "result": "0.001 ± 0.021"}, {"measurement": "level (log10)", "setting": "[1]; 60000 nM", "result": "0.018 ± 0.027"}, {"measurement": "level (log10)", "setting": "[2]; 6700 nM", "result": "0 ± 0.021"}, {"measurement": "level (log10)", "setting": "[2]; 20000 nM", "result": "-0.0005 ± 0.012"}, {"measurement": "level (log10)", "setting": "[2]; 60000 nM", "result": "0.0015 ± 0.03"}, {"measurement": "level (log10)", "setting": "[3]; 6700 nM", "result": "-0.0005 ± 0.0035"}, {"measurement": "level (log10)", "setting": "[3]; 20000 nM", "result": "0.0005 ± 0.022"}, {"measurement": "level (log10)", "setting": "[3]; 60000 nM", "result": "0.0205 ± 0.042"}, {"measurement": "level (log10)", "setting": "[4]", "result": "-0.046 ± 0.024"}, {"measurement": "level (log10)", "setting": "[5]; 6700 nM", "result": "0.0005 ± 0.023"}, {"measurement": "level (log10)", "setting": "[5]; 20000 nM", "result": "0.0025 ± 0.00071"}, {"measurement": "level (log10)", "setting": "[5]; 60000 nM", "result": "-0.033 ± 0.028"}, {"measurement": "level (log10)", "setting": "[6]; 6700 nM", "result": "-0.0025 ± 0.005"}, {"measurement": "level (log10)", "setting": "[6]; 20000 nM", "result": "-0.0045 ± 0.0021"}, {"measurement": "level (log10)", "setting": "[6]; 60000 nM", "result": "0.0085 ± 0.011"}, {"measurement": "level (log10)", "setting": "[7]; 6700 nM", "result": "-0.006 ± 0.0085"}, {"measurement": "level (log10)", "setting": "[7]; 20000 nM", "result": "-0.013 ± 0.017"}, {"measurement": "level (log10)", "setting": "[7]; 60000 nM", "result": "-0.01 ± 0.0014"}]}, {"test system": "HDF3CGF:CCL2/MCP-1", "values": [{"measurement": "level (log10)", "setting": "[1]; 6700 nM", "result": "0.0055 ± 0.012"}, {"measurement": "level (log10)", "setting": "[1]; 20000 nM", "result": "-0.001 ± 0.0057"}, {"measurement": "level (log10)", "setting": "[1]; 60000 nM", "result": "-0.0115 ± 0.018"}, {"measurement": "level (log10)", "setting": "[2]; 6700 nM", "result": "-0.014 ± 0.028"}, {"measurement": "level (log10)", "setting": "[2]; 20000 nM", "result": "-0.013 ± 0.057"}, {"measurement": "level (log10)", "setting": "[2]; 60000 nM", "result": "-0.044 ± 0.082"}, {"measurement": "level (log10)", "setting": "[3]; 6700 nM", "result": "-0.0045 ± 0.005"}, {"measurement": "level (log10)", "setting": "[3]; 20000 nM", "result": "0.0155 ± 0.012"}, {"measurement": "level (log10)", "setting": "[3]; 60000 nM", "result": "0.007 ± 0.021"}, {"measurement": "level (log10)", "setting": "[4]", "result": "-0.284 ± 0.03"}, {"measurement": "level (log10)", "setting": "[5]; 6700 nM", "result": "-0.0315 ± 0.03"}, {"measurement": "level (log10)", "setting": "[5]; 20000 nM", "result": "-0.045 ± 0.03"}, {"measurement": "level (log10)", "setting": "[5]; 60000 nM", "result": "-0.0815 ± 0.046"}, {"measurement": "level (log10)", "setting": "[6]; 6700 nM", "result": "-0.0335 ± 0.0021"}, {"measurement": "level (log10)", "setting": "[6]; 20000 nM", "result": "-0.013 ± 0.023"}, {"measurement": "level (log10)", "setting": "[6]; 60000 nM", "result": "-0.053 ± 0.023"}, {"measurement": "level (log10)", "setting": "[7]; 6700 nM", "result": "0.0035 ± 0.06"}, {"measurement": "level (log10)", "setting": "[7]; 20000 nM", "result": "0.006 ± 0.051"}, {"measurement": "level (log10)", "setting": "[7]; 60000 nM", "result": "0.0165 ± 0.035"}]}, {"test system": "CASM3C:CD87/uPAR", "values": [{"measurement": "level (log10)", "setting": "[1]; 6700 nM", "result": "-0.018 ± 0.0099"}, {"measurement": "level (log10)", "setting": "[1]; 20000 nM", "result": "-0.0235 ± 0.029"}, {"measurement": "level (log10)", "setting": "[1]; 60000 nM", "result": "-0.018 ± 0.0028"}, {"measurement": "level (log10)", "setting": "[2]; 6700 nM", "result": "-0.004 ± 0.0071"}, {"measurement": "level (log10)", "setting": "[2]; 20000 nM", "result": "-0.0245 ± 0.00071"}, {"measurement": "level (log10)", "setting": "[2]; 60000 nM", "result": "-0.026 ± 0.035"}, {"measurement": "level (log10)", "setting": "[3]; 6700 nM", "result": "-0.0015 ± 0.018"}, {"measurement": "level (log10)", "setting": "[3]; 20000 nM", "result": "-0.024 ± 0.051"}, {"measurement": "level (log10)", "setting": "[3]; 60000 nM", "result": "-0.0345 ± 0.033"}, {"measurement": "level (log10)", "setting": "[4]", "result": "-0.021 ± 0.0085"}, {"measurement": "level (log10)", "setting": "[5]; 6700 nM", "result": "0.0315 ± 0.005"}, {"measurement": "level (log10)", "setting": "[5]; 20000 nM", "result": "0.017 ± 0.042"}, {"measurement": "level (log10)", "setting": "[5]; 60000 nM", "result": "0.005 ± 0.0057"}, {"measurement": "level (log10)", "setting": "[6]; 6700 nM", "result": "-0.0295 ± 0.022"}, {"measurement": "level (log10)", "setting": "[6]; 20000 nM", "result": "-0.025 ± 0.014"}, {"measurement": "level (log10)", "setting": "[6]; 60000 nM", "result": "-0.002 ± 0.0071"}, {"measurement": "level (log10)", "setting": "[7]; 6700 nM", "result": "-0.0095 ± 0.018"}, {"measurement": "level (log10)", "setting": "[7]; 20000 nM", "result": "-0.007 ± 0.023"}, {"measurement": "level (log10)", "setting": "[7]; 60000 nM", "result": "-0.021 ± 0.0085"}]}, {"test system": "MyoF:alpha-SM Actin", "values": [{"measurement": "level (log10)", "setting": "[1]; 6700 nM", "result": "-0.0195 ± 0.0078"}, {"measurement": "level (log10)", "setting": "[1]; 20000 nM", "result": "-0.0025 ± 0.0035"}, {"measurement": "level (log10)", "setting": "[1]; 60000 nM", "result": "-0.002 ± 0.011"}, {"measurement": "level (log10)", "setting": "[2]; 6700 nM", "result": "0 ± 0.0057"}, {"measurement": "level (log10)", "setting": "[2]; 20000 nM", "result": "-0.006 ± 0.0099"}, {"measurement": "level (log10)", "setting": "[2]; 60000 nM", "result": "0.011 ± 0.054"}, {"measurement": "level (log10)", "setting": "[3]; 6700 nM", "result": "0.03 ± 0.064"}, {"measurement": "level (log10)", "setting": "[3]; 20000 nM", "result": "0.0325 ± 0.064"}, {"measurement": "level (log10)", "setting": "[3]; 60000 nM", "result": "0.043 ± 0.034"}, {"measurement": "level (log10)", "setting": "[4]", "result": "-0.0885 ± 0.061"}, {"measurement": "level (log10)", "setting": "[5]; 6700 nM", "result": "-0.041 ± 0.0014"}, {"measurement": "level (log10)", "setting": "[5]; 20000 nM", "result": "-0.075 ± 0.011"}, {"measurement": "level (log10)", "setting": "[5]; 60000 nM", "result": "-0.182 ± 0.028"}, {"measurement": "level (log10)", "setting": "[6]; 6700 nM", "result": "0.037 ± 0.079"}, {"measurement": "level (log10)", "setting": "[6]; 20000 nM", "result": "0.0415 ± 0.067"}, {"measurement": "level (log10)", "setting": "[6]; 60000 nM", "result": "0.0575 ± 0.063"}, {"measurement": "level (log10)", "setting": "[7]; 6700 nM", "result": "0.0075 ± 0.019"}, {"measurement": "level (log10)", "setting": "[7]; 20000 nM", "result": "0 ± 0.011"}, {"measurement": "level (log10)", "setting": "[7]; 60000 nM", "result": "-0.012 ± 0.025"}]}]}
